Source: article PMC5384001 (Scientific Reports, 2017)
Where a chain is given by its changes, count along the chain named. “And” between values parts separate entries of the source, which are not always exact repeats. Identical values can stand only once.

Tests used:
GluD2-Lc = molecular target: T1, GluD2-Lc (Rattus norvegicus, UniProt Q63226, A654T); test: Two-electrode voltage clamp in Xenopus oocytes, inhibition of spontaneous currents; assay type: cell-based
T1 construct: the function of full-length receptors as well, we introduced them into the GluD2 lurcher mutant (GluD2-Lc); expressed in transfected cells; host or cells: Xenopus laevis oocytes injected with cRNA
T1 sequence (Q63226 24-1007 A654T): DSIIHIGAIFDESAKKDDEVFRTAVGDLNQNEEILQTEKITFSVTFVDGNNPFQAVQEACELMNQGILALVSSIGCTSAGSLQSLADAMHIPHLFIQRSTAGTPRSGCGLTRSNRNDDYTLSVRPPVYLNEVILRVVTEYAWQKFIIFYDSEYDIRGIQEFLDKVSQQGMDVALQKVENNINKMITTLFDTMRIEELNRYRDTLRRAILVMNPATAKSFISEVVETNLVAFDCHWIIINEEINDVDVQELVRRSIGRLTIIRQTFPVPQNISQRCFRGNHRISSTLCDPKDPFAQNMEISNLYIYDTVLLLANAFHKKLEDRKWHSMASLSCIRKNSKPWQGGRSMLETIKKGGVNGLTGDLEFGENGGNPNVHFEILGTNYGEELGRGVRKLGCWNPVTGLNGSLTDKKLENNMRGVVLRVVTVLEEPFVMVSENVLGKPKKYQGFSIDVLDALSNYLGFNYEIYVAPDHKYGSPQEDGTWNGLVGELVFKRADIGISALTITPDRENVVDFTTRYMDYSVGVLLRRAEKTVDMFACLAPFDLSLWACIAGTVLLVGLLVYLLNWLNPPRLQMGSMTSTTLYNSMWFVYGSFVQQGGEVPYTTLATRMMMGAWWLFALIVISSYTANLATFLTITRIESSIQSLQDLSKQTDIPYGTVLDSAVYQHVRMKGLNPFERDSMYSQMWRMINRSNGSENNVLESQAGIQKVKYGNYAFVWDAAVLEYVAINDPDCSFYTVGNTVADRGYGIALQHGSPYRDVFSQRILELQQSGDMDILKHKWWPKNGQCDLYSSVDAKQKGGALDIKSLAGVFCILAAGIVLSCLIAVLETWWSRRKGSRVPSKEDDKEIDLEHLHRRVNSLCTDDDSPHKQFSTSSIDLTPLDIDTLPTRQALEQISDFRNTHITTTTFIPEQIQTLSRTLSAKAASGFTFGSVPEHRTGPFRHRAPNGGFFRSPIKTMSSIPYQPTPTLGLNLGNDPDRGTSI
Source text: (§1) All cDNAs for expression in Xenopus oocytes were cloned into the vector pSGEM[30]. Point mutants of GluD2-Lc were constructed by overlap extension PCR with mutagenic oligonucleotide primers. The GluD2-Lc-(H)GluN1 chimera was constructed by transferring the S1- and S2-encoding sequences from GluD2-LBD-(H)GluN1 to GluD2-Lc via overlap extension PCR using tail primers. The S1 and S2 sequences were transferred separately, yielding GluD2-Lc-(HS1)GluN1 and GluD2-Lc-(HS2)GluN1 constructs. GluD2-Lc-(H)GluN1 was then produced from these by another overlap extension PCR. Complementary RNA (cRNA) for injection into oocytes was synthesised from 1 μg of linearised template DNA with the mMESSAGE mMACHINE in vitro transcription kit (Ambion, Austin, TX, USA).
(§2) Oocytes were obtained by surgically removing parts of the ovaries from Xenopus laevis (Nasco, Fort Atkinson, WI, USA) anaesthetised with 1.5 g/L 3-aminobenzoic acid ethylester (Sigma, Taufkirchen, Germany). […] Oocytes were injected with 11 ng cRNA (10 ng of each cRNA for co-expression of GluN1 and GluN2A) using a nanoliter injector (WPI, Sarasota, FL, USA). Four days after cRNA injection, current responses were recorded under voltage clamp at –70 mV with a Turbo Tec-10CD amplifier (npi electronic, Tamm, Germany) controlled by Patchmaster software (HEKA, Lambrecht, Germany). Currents were filtered with a 20 Hz low-pass filter and then digitised with a sampling rate of 50 Hz. Recording electrodes were pulled from borosilicate glass (Hilgenberg, Malsfeld, Germany) with an L/M-3P-A vertical pipette puller (List-Medical), filled with 3 M KCl, and had resistances of 0.5–5 MΩ (voltage electrode) or 0.5–1.5 MΩ (current electrode). Recordings were performed in a 50 μL chamber under constant superfusion with extracellular solution at a flow rate of 3–5 mL/min. […] Finally, Ba-NFR and then NMDGR were applied again to check for reversibility.

GluD2-Lc(Y770F) = molecular target: T2, GluD2-Lc(Y770F) (Rattus norvegicus, UniProt Q63226, A654T/Y770F); test: as above; assay type: cell-based; conditions: fraction of spontaneous current inhibited by saturating D-serine
T2 construct: the function of full-length receptors as well, we introduced them into the GluD2 lurcher mutant (GluD2-Lc); expressed in transfected cells; host or cells: Xenopus laevis oocytes injected with cRNA
T2 sequence (Q63226 24-1007 A654T/Y770F): T1 sequence (Q63226 24-1007 A654T) with Y747F
Source text: as §1, §2

## N[C@H](CO)C(=O)O [D-serine]
GluD2-Lc; fraction of spontaneous current inhibited by saturating D-serine
  D-serine efficacy Mean ± SEM: 46% and 46.2 ± 1.9%
GluD2-Lc; n = 20
  maximal, absolute, D-serine-induced steady-state inhibition of spontaneous currents: 222 ± 36 nA
GluD2-Lc(Y770F)
  D-serine efficacy Mean ± SEM: 59.9 ± 1.7%
